Experiment: Viscosity of cystic fibrosis mucus before and after incubation with Compositions 5-12 (Experimental Part II)
Design: species or system human
Details: mucus from patients, in vitro

CC(=O)N[C@@H](CS)C(=O)O [N-acetylcysteine, 2R-acetamido-3-sulfanylpropanoic acid]
Effect on viscosity of bronchial mucus (in words): effective at reducing the viscosity of bronchial mucus
